Legend:
[1] = Stability of L-DOPA ethyl ester forms; assay type: physicochemical
Excerpt: (§1) Great Britain Patent No. 1,364,505 and corresponding U.S. Pat. No. 3,803,120, assigned to Hoffman-La Roche, describe the synthesis of L-DOPA ethyl ester hydrochloride salt and free base. This compound is used as an intermediate in the synthesis of other compounds and is not characterized in the patent specification. […] This material cannot be used for pharmaceutical compositions. Likewise, the L-DOPA ethyl ester free base as prepared in these two patents is impure and not stable and thus also is not suitable for pharmaceutical compositions. At best it can be used as a synthetic intermediate for further chemical synthesis as described in the cited patents.
(§2) L-DOPA ethyl ester as free base obtained by this process is stable, non-hygroscopic, and crystalline. The LDEE free base has a particle size from 5 to 300 micron and an average particle size of 80 micron.

[2] = Hygroscopicity of L-DOPA ethyl ester forms; assay type: physicochemical
Excerpt: as §1, §2

[3] = composition produced according to the Milman process (U.S. Pat. No. 5,354,885); 6 months at 40° C.; cited from earlier work
[4] = Particle size of LDEE free base; assay type: physicochemical; conditions: free base obtained by this process
Excerpt: as §2

[5] = material synthesized by the methods of GB 1,364,505 / U.S. Pat. No. 3,803,120
[6] = free base obtained by this process

Row | stability [1, 5] | hygroscopicity [2, 5] | stability [1, 6] | average particle size [4] [micron] | hygroscopicity [2, 6] | SMILES | L-DOPA ethyl ester remaining after incubation [3]
1 | not stable | hygroscopic |  |  |  | CCOC(=O)[C@@H](N)Cc1ccc(O)c(O)c1.Cl [L-DOPA ethyl ester hydrochloride salt, L-DOPA ethyl ester hydrochloride, reference compound] | 
2 | not stable |  | stable | 80 | non-hygroscopic | CCOC(=O)[C@@H](N)Cc1ccc(O)c(O)c1 [L-DOPA ethyl ester] | at least 97 % by weight
